Drawing on ChEMBL document CHEMBL4020728 (Bioorg Med Chem, 2017), this text covers Ki for 13 compounds.

One assay deals with Carbonic anhydrase 1 (Homo sapiens, UniProt P00915). Briefly: Inhibition of recombinant human carbonic anhydrase-1 assessed as reduction in CO2 hydration preincubated for 10 mins measured for 5 to 10 secs by stopped flow assay.
Another assay deals with Carbonic anhydrase 9 (Homo sapiens, UniProt Q16790).
For another assay, the target named is Carbonic anhydrase 2 (Homo sapiens, UniProt P00918). Nature of the assay: Inhibition of recombinant human carbonic anhydrase-2 assessed as reduction in CO2 hydration preincubated for 10 mins measured for 5 to 10 secs by stopped flow assay.
In the next assay the target is Carbonic anhydrase 12 (Homo sapiens, UniProt O43570). Nature of the assay: Inhibition of recombinant human carbonic anhydrase-12 assessed as reduction in CO2 hydration preincubated for 10 mins measured for 5 to 10 secs by stopped flow assay.
Carbonic anhydrase 12, sequence (O43570 whole entry): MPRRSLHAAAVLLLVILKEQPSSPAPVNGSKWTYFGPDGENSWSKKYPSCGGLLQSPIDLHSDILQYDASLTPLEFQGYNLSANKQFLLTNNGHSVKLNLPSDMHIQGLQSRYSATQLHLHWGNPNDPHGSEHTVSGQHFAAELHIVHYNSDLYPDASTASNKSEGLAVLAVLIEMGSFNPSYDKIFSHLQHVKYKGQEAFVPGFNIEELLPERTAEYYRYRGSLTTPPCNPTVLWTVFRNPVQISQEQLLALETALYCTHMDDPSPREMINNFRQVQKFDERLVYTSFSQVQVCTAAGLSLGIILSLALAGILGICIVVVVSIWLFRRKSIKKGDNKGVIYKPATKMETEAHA

For orientation: Ki means the equilibrium dissociation constant of an inhibitor or competing ligand from its target.

Carbonic anhydrase 1, sequence (P00915 whole entry): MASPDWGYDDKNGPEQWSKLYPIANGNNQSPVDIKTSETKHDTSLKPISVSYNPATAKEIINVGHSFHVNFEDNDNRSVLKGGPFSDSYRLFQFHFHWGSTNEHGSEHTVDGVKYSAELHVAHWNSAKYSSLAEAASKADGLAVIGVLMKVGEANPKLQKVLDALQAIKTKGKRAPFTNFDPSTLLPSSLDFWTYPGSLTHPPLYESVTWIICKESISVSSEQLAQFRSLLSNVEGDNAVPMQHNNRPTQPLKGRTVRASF
Description for Carbonic anhydrase 9: Inhibition of recombinant human carbonic anhydrase-9 assessed as reduction in CO2 hydration preincubated for 10 mins measured for 5 to 10 secs by stopped flow assay

For the compound `CC#CCN1C(=O)c2ccccc2S1(=O)=O`, the Ki is over 10000 nM at Carbonic anhydrase 1, 563 nM on Carbonic anhydrase 9 and over 10000 nM at Carbonic anhydrase 2.
With `O=C(O)c1ccccc1S(=O)(=O)NCc1ccc(Br)cc1`, the values for the Ki at Carbonic anhydrase 1 and at Carbonic anhydrase 9 were over 10000 nM and 277 nM, respectively.
As for `CCCCCNS(=O)(=O)c1ccccc1C(=O)O`, the figures for the Ki on Carbonic anhydrase 1, at Carbonic anhydrase 9 and on Carbonic anhydrase 2 were over 10000 nM, 392 nM and over 10000 nM, respectively.
As to `CCCN1C(=O)c2ccccc2S1(=O)=O`, the Ki was over 10000 nM on Carbonic anhydrase 1, 209 nM on Carbonic anhydrase 9 and over 10000 nM on Carbonic anhydrase 2.
Turning to `CCCNS(=O)(=O)c1ccccc1C(=O)O`, the results for the Ki on Carbonic anhydrase 1, at Carbonic anhydrase 9 and at Carbonic anhydrase 2 were over 10000 nM, 481 nM and over 10000 nM, respectively.
For `O=C(O)c1ccccc1S(=O)(=O)NCc1ccccc1`, the values for the Ki on Carbonic anhydrase 1 and at Carbonic anhydrase 9 were over 10000 nM and 342 nM, respectively.
For `O=C1c2ccccc2S(=O)(=O)N1CCc1ccccc1`, the Ki at Carbonic anhydrase 1 is over 10000 nM; at Carbonic anhydrase 9 it was 76.1 nM; on Carbonic anhydrase 2, over 10000 nM; at Carbonic anhydrase 12, 10.4 nM.
As to `CCN1C(=O)c2ccccc2S1(=O)=O`, the Ki on Carbonic anhydrase 1 is over 10000 nM; at Carbonic anhydrase 9, 236 nM; on Carbonic anhydrase 2 it was over 10000 nM.
In the case of `CC#CCNS(=O)(=O)c1ccccc1C(=O)O`, the Ki at Carbonic anhydrase 1 was over 10000 nM; at Carbonic anhydrase 9, 250 nM; on Carbonic anhydrase 2 it was over 10000 nM.
With `CCCCNS(=O)(=O)c1ccccc1C(=O)O`, the Ki on Carbonic anhydrase 1 is over 10000 nM; on Carbonic anhydrase 9, 436 nM; at Carbonic anhydrase 2, over 10000 nM.
For the compound `CCCCCN1C(=O)c2ccccc2S1(=O)=O`, the Ki on Carbonic anhydrase 1 is over 10000 nM; on Carbonic anhydrase 9, 102 nM; at Carbonic anhydrase 2, over 10000 nM; at Carbonic anhydrase 12 it was 34 nM.
Take `O=C1c2ccccc2S(=O)(=O)N1Cc1ccccc1`: the Ki on Carbonic anhydrase 1 is over 10000 nM; at Carbonic anhydrase 9 it was 89.2 nM; at Carbonic anhydrase 2 it was over 10000 nM.
As for `CCCCN1C(=O)c2ccccc2S1(=O)=O`, the Ki on Carbonic anhydrase 1 was over 10000 nM; on Carbonic anhydrase 9 it was 164 nM; on Carbonic anhydrase 2, over 10000 nM.
